Patent publication US5578575A, “Partially modified and retro-inverted tetrapeptides analogues of C-reactive protein fragments” (Italfarmaco S.P.A., priority 1992, dated 1996)

Tests used:
[1] = system: BALB/C mice; test: In vivo protection against septic shock (LPS-inoculated mice, survival); conditions: LPS 50 mg/kg i.p., compound at time 0 or 30 minutes after LPS, checked for 8 days
Method: Evaluation of the in vivo protection against septic shock
BALB/C mice (6 mice/group) weighting between 20 and 25 g, were intraperitoneally inoculated with 50 mg/kg of LPS (lipopolysaccharide-Sigma). The groups, except for the control, were inoculated with increasing doses of one of the compounds of the invention dissolved in physiologic solution having a final volume of 0.5 ml, at time 0 (i.e. together with LPS) or 30 minutes after the LPS inoculation. The mice were checked for 8 days to determined the survival percentage. Compound of Example 1 yields a survival percentage of about 65% at doses of 6.2 ug/mouse and 0.62 ug/mouse, and its isomer B yields a survival percentage of about 80% at a dose of 6.25 ug/mouse and of 75% at a dose of 62.5 ug/mouse.

[2] = system: murine peritoneal cells; test: Stimulation of the nitric oxide by murine peritoneal cells (chemiluminescence); type: cell-based, BALB/C mice; conditions: 96 h, with LPS 30 μg/ml; for nitric oxide, Stimulation index: with respect to control; for nitric oxide content: control 20
Method: Stimulation of the nitric oxide by murine peritoneal cells The peritoneal cells were obtained as described in the previous test, and incubated for 96 hours at 37° C. in the presence of the compounds in question and of lipopolysaccharide at a concentration of 30 μg/ml. At the end of the treatment the supernatants were collected and the nitric oxide content was determined by the chemiluminescence test described by Palmer R. M. J. et al, Nature, 327, 524, 1987.

[3] = system: murine splenocytes; test: Stimulation of in vitro IFN-.tau. production by murine splenocytes (ELISA); type: cell-based, BALB/C mice; conditions: for IFN-.tau. production, Stimulation index / IFN-.tau. production, U/ml: 24 h; for IFN-.tau. production, Stimulation index: with respect to control; for IFN-.tau. production, U/ml: control 31 (Ex. 1, Ex. 2), 41 (Ex. 3)
Method: Stimulation of in vitro IFN-.tau.production by murine splenocytes The splenic cells were obtained from spleen of BALB/C mice as single cells suspension. The splenocytes thus obtained were resuspended in RPMI 1640 culture medium (Flow Lab., Hertz, UK) containing 5% of fetal calf serum (FCS) (HyClone, ST, Utah, USA) at a final concentrazione of 10^7 cells/ml, and incubated in 96-well plates for 24 hours at 37° C. in the presence of the tested compounds at the indicated concentration. At the end of the incubation the supernatant was collected, filtered by […] filter and freezed to -80° C. until the time of the test carried out by ELISA commercial kit (Genzyme, Boston, Mass., USA).

[4] = system: murine peritoneal macrophages; test: Stimulation of IL-1 production by murine peritoneal macrophages (ELISA); type: cell-based, BALB/C mice; conditions: 96 h; for IL-1 production, Stimulation index: with respect to control; for IL-1 production, U/ml: control 15
Text: Stimulation of IL-1 production by murine peritoneal macrophages Murine peritoneal macrophages were obtained by inoculation of a solution of hydrolized starch (BDH Chemicals, Poole, Dorset, UK) into the peritoneal cavity of BALB/C mice, three days before sacrificing the animals. The peritoneal cells were then collected by washing the peritoneal cavity with a solution of RPMI 1640 containing 10% of FCS, and resuspended in the same solution at a concetration of 10^6 cells/ml in 96-well plates. The incubation was performed for 96 hours at 37° C. in the presence of the compounds in question. At the end of the treatment the supernatants were collected and used for dosing cytokine by means of a suitable ELISA commerical kit (Genzyme, Boston, Mass., USA).

[5] = system: Leishmania major; test: Effect on the leishmanicidal activity of murine peritoneal macrophage (3H-thymidine incorporation by living parasites); type: cell-based; conditions: for cpm (counts per minute), 3H-thymidine incorporation by living parasites: control 18,273
Method: Effect on the leishmanicidal activity of murine peritoneal macrophage The peritoneal cells collected as described above were seeded in 96-well flat bottom plates (Nunc, Roskiled, DK) at a concentration of 10^5 […]; and incubated per 24 hours at 37° C. At the end of the treatment, the cells not adherent to the well were separated and discharged, whereas the adherent cells were washed three time with culture medium and incubated for 24 hours with the compounds in question, then the cells were infected through a 24 hours incubation with promastigotes of Leishmania major (L. major, PVL49 strain supplied by Dr. Neal R. A., London School of Hygiene and Tropical Medicine, London, UK). At the end of the infection treatment each well was added with 100 μl of a 0.01% solution od sodium dodecylsulphate in RPMI 1640, and the plates were incubated for 30 minutes at 37° C. The Schneider's culture medium (Schneider Drosophila medium, Gibco Lab., Grand Island, N.Y., USA) with 30% of FCS was added. Each well was added with 1 μCi of ^3 H-thymidine, and a 72 hours incubation was carried out at 37° C. The incorporation of radioactivity by the living parasites inside the peritoneal cells, which is correlated to the infection degree and consequently to the leishmanicidal activity of the cells, was measured by collecting the cells by means of a cell-harvester and measuring the radioactivity with liquid scintillation β-counter.

N=C(N)NCCC[C@H](NC(=O)[C@@H]1CCCN1C(=O)C(CCCCN)C(=O)NCN)C(=O)O (single isomer, unassigned) [ITF 1358]
survival percentage ([1]; 6.25 ug/mouse): about 80%
survival percentage ([1]; 62.5 ug/mouse): 75%

N=C(N)NCCC[C@H](NC(=O)[C@@H]1CCCN1C(=O)C(CCCCN)C(=O)NCN)C(=O)O (single isomer, unassigned) [Example 1]
nitric oxide, Stimulation index ([2]; 0.01 μg/ml): 2.2
nitric oxide content ([2]; 0.01 μg/ml): 43 nmol/mL
nitric oxide, Stimulation index ([2]; 0.1 μg/ml): 3.0
nitric oxide content ([2]; 0.1 μg/ml): 59 nmol/mL
nitric oxide, Stimulation index ([2]; 1.0 μg/ml): 3.9
nitric oxide content ([2]; 1.0 μg/ml): 77 nmol/mL
nitric oxide, Stimulation index ([2]; 10.0 μg/ml): 2.9
nitric oxide content ([2]; 10.0 μg/ml): 57 nmol/mL
survival percentage ([1]; 0.62 ug/mouse): about 65%
survival percentage ([1]; 6.2 ug/mouse): about 65%
IFN-.tau. production, Stimulation index ([3]; 0.1 μg/ml): 1.1
IFN-.tau. production, U/ml ([3]; 0.1 μg/ml): 33 U/ml
IFN-.tau. production, change in words ([3]; 1.0 μg/ml): doubled
IFN-.tau. production, Stimulation index ([3]; 1.0 μg/ml): 1.9
IFN-.tau. production, U/ml ([3]; 1.0 μg/ml): 60 U/ml
IFN-.tau. production, Stimulation index ([3]; 10.0 μg/ml): 1.6
IFN-.tau. production, U/ml ([3]; 10.0 μg/ml): 49 U/ml
IL-1 production, Stimulation index ([4]; 0.01 μg/ml): 0.4
IL-1 production, U/ml ([4]; 0.01 μg/ml): 6 U/ml
IL-1 production, Stimulation index ([4]; 0.1 μg/ml): 0.1
IL-1 production, U/ml ([4]; 0.1 μg/ml): 2 U/ml
IL-1 production, Stimulation index ([4]; 1.0 μg/ml): 0.1
IL-1 production, U/ml ([4]; 1.0 μg/ml): 2 U/ml
IL-1 production, Stimulation index ([4]; 10.0 μg/ml): 0,1
IL-1 production, U/ml ([4]; 10.0 μg/ml): 2 U/ml
% reduction of infection ([5]; 0.1 μg/ml (minimum dose used)): over 70%
% reduction of infection ([5]; 0.1 μg/ml (minimum dose used), listed as Es. 1): 72%
cpm (counts per minute), 3H-thymidine incorporation by living parasites ([5]; 0.1 μg/ml): 5,096 cpm
% reduction of infection ([5]; 1.0 μg/ml): 79%
cpm (counts per minute), 3H-thymidine incorporation by living parasites ([5]; 1.0 μg/ml): 3,783 cpm
% reduction of infection ([5]; 10.0 μg/ml): 77%
cpm (counts per minute), 3H-thymidine incorporation by living parasites ([5]; 10.0 μg/ml): 4,292 cpm
